Laboratory results: patent publication US20170137625A1, “ANTHRAQUINONE COMPOUND USED FOR COLOR FILTER OF LCD” (Dow Global Technologies LLC, priority 2014, published 2017)

How the values were obtained:
Solubility in PGMEA = type: physicochemical; details: for Solubility in PGMEA: solvent PGMEA (propylene glycol monomethyl ether acetate)
[1] = Thermal stability of films (chromaticity): ΔE before and after hard baking; type: physicochemical; details: for ΔEab after baking at 230° C. for 1 h: dye in alkaline soluble acrylic resin film on glass, hard baked at 230° C. under air for 1 h, CIE Lab, D65/10
Description: 1.15 g of alkaline soluble acrylic resin solution (MIPHOTO RPR4022, supplied from Miwan Commercial Co., Ltd., 40 wt % of solid content in methyl 3-methoxypropionate) was mixed with 1.73 g of PGMEA (60 wt %). 0.189 g of Dye 1 was mixed in the alkaline soluble resin/PGMEA solution and stirred for 2 hours at room temperature using a shaker. The solution was filtered through a 0.45 μm PTFE filter to remove large particles. Then the filtered solution was spin coated onto a clean glass substrate with 400 rpm spin speed for 18 seconds. The obtained film was first dried at 90° C. under air atmosphere for 30 minutes, and then hard baked at 230° C. under air atmosphere for 1 hour. The CIE values (xyY values and lab values) and the transmittance were measured before and after the hard bake.
(4) Thermal Stability of Films (Chromaticity):
The wet film after spin coating is dried in oven at 90° C. for 30 minutes and then soft baked at 150° C. for 15 minutes. The chromaticity coordinates (L, a, b) are recorded with UltraScan Pro (Hunterlab) colorimeter. D65/10 light source is used and results are based on CIE Lab coordinates. After that the film is hard baked at target temperature (230° C.) for 1 hour and the new chromaticity coordinates (L′, a′, b′) are recorded with the method above. The thermal stability of a film is indicated by the difference of chromaticity coordinate before and after hard baking represented by the following formula;
ΔE=√{square root over ((L−L′)^2+(a−a′)^2+(b−b′)^2)}

[2] = comparison in words, referring to Table 1

Row | Solubility in PGMEA (Solubility in PGMEA) | ΔEab after baking at 230° C. for 1 h [1] | solubility in PEGMEA compared with the Comparative Examples (Solubility in PGMEA; [2]) | thermal stability compared with the Comparative Examples [1, 2] | SMILES
1 | 3.0 wt % | 6.8 | – | – | Cc1cc(C)c(Nc2ccc(Nc3c(C)cc(O)cc3C)c3c2C(=O)c2ccccc2C3=O)c(C)c1 [(1-((4-hydroxy-2,6-dimethylphenyl)amino)-4-(mesitylamino)-anthraquinone]
2 | 6.2 wt % | 2.1 | significant improvement | significant improvement | C=CCN(CC=C)C(=O)COc1cc(C)c(Nc2ccc(Nc3c(C)cc(C)cc3C)c3c2C(=O)c2ccccc2C3=O)c(C)c1 [Dye 1, N,N-diallyl-acetamide modified anthraquinone]
3 | 1.9 wt % | 33 (color almost | – | – | CC(C)Nc1ccc(NC(C)C)c2c1C(=O)c1ccccc1C2=O [Solvent Blue 36]
4 | 0.6 wt % | 7.9 | – | – | Cc1cc(C)c(Nc2ccc(Nc3c(C)cc(C)cc3C)c3c2C(=O)c2ccccc2C3=O)c(C)c1 [Solvent Blue 104, 1,4-bis(mesitylamino)anthraquinone]
